In patent publication US5439902A, “14α, 16α-ethanoand 14α, 16α-etheno-estratrienes” (Schering Aktiengesellschaft, priority 1991, dated 1995):

What was measured:
vaginal epithelium = test: Allen-Doisy test (vaginal smears, threshold at which 50% of the animals reach stage 3); assay type: in vivo, ovariectomized rats; conditions: for Allen-Doisy Test p.o. [ED50] / Allen-Doisy Test s.c. [ED50]: ovariectomized rats, one-time administration d1, smears d3-d5
Protocol: In the Allen-Doisy test, an evaluation of vaginal smears in ovariectomized rats is performed on days 3-5 (d3-d5) after the one-time administration on day 1 (d1) of the test substance. The following cycle stages are distinguished:
1=diestrus (leukocytes and nucleated epithelial cells),
2=proestrus (nucleated epithelial cells),
3=estrus (denucleated horny plaques),
4=metestrus (denucleated horny plaques, leukocytes, epithelial cells).
After oral or subcutaneous administration, estrogenically active substances result in the proliferation of the vaginal epithelium and the hornification of superficial cell layers. As a threshold value, that amount of an estrogen is indicated in which 50% of the animals reach stage 3. Further, estrogens cause an increase of the uterus weight.

Estrogen-receptor = Estrogen-receptor test (KF); assay type: binding; conditions: estradiol = 1.0

Compound | Allen-Doisy Test p.o. [ED50] (vaginal epithelium) | threshold value (50% of the animals reach stage 3) (vaginal epithelium; s.c., rat, FIG. 1, threshold already exceeded after only 0.3 μg) | Allen-Doisy Test s.c. [ED50] (vaginal epithelium; s.c.) | Estrogen-receptor test (KF) (Estrogen-receptor)
C[C@]12CC[C@@H]3c4ccc(O)cc4CC[C@H]3[C@@]13CC[C@H](C3)[C@H]2O [14α,16α-ethano-estra-1,3,5(10)-triene-3,17α-diol] | 3-10 μg/animal/day | < 0.3 µg | 0.1-0.3 μg/animal/day | 0.5
C[C@]12CC[C@@H]3c4ccc(O)cc4CC[C@H]3[C@@]13CC[C@H](C3)[C@@H]2O [14α,16α-ethano-estra-1,3,5(10)-triene-3,17β-diol] | 1.0 μg/animal/day | – | 0.1-0.3 μg/animal/day | 1.0
C[C@]12CC[C@@H]3c4ccc(O)cc4CC[C@H]3[C@@]13C=C[C@H](C3)[C@H]2O [14α,16α-etheno-estra-1,3,5(10)-triene-3,17α-diol] | – | – | – | 1.5
C[C@]12CC[C@@H]3c4ccc(O)cc4CC[C@H]3[C@@H]1CC[C@H]2O [17α-Estradiol, reference compound] | – | – | – | 46.0
C[C@]12CC[C@@H]3c4ccc(O)cc4CC[C@H]3[C@@H]1CC[C@@H]2O [Estradiol, reference compound] | – | – | – | 1.0
